{"source": "patent US20250195492A1", "about": "“USE OF IPTACOPAN FOR THE TREATMENT OF LUPUS NEPHRITIS” (Novartis AG, priority 2022, published 2025)", "key": {"patients with C3G": {"system": "patients with C3G", "assay": "Phase 2 study in patients with C3G (CLNP023X2202), interim analysis", "assay_type": "in vivo, human", "conditions": "200 mg b.i.d."}, "patients with IgAN": {"system": "patients with IgAN", "assay": "Phase 2 study in patients with IgAN (CLNP023X2203), interim analysis", "assay_type": "in vivo, human"}, "PNH patients": {"system": "PNH patients", "assay": "Phase 2 studies in PNH (CLNP023X2201 add-on to eculizumab, CLNP023X2204 monotherapy)", "assay_type": "in vivo, human"}, "alternative pathway": {"system": "alternative pathway", "assay": "Wieslab assay (least sensitive alternative pathway biomarker), FIH trial CLNP023X2101", "assay_type": "in vivo, human", "conditions": "200 mg b.i.d.", "protocol": "The study will first investigate the treatment effect of iptacopan 200 mg b.i.d. on top of SoC compared to SoC alone (Part 1). This dose was chosen based on the least sensitive alternative pathway biomarker (Wieslab assay); it ensures >90% target inhibition in more than 70% of individuals, as determined from FIH trial CLNP023X2101. Dose range finding with doses between 10 to 200 mg b.i.d was performed in Phase 2 studies in IgAN, C3G and PNH."}, "[1]": {"assay": "Healthy volunteer studies CLNP023X2101 and CLNP023X1102 (SAD and MAD)", "assay_type": "in vivo"}, "[2]": {"conditions": "200 mg b.i.d. compared to placebo"}, "[3]": {"conditions": "200 mg b.i.d., add-on to eculizumab and monotherapy, majority of patients, preliminary data"}, "[4]": {"conditions": "102 subjects, SAD 10 to 400 mg, MAD 10 to 200 mg b.i.d. for 2 weeks"}}}
{"smiles": "CCO[C@H]1CCN(Cc2c(OC)cc(C)c3[nH]ccc23)[C@H](c2ccc(C(=O)O)cc2)C1", "note": "[iptacopan, 4-((2S,4S)-(4-ethoxy-1-((5-methoxy-7-methyl-1H-indol-4-yl)methyl)piperidin-2-yl))benzoic acid]", "values": [{"measurement": "tolerability", "setting": "patients with C3G", "result": "well-tolerated"}, {"measurement": "eGFR", "setting": "patients with C3G; at 12 weeks", "result": "stabilization"}, {"measurement": "reduction in UPCR", "setting": "patients with C3G; at 12 weeks", "result": 49, "unit": "%"}, {"measurement": "safety profile", "setting": "patients with IgAN", "result": "overall well-tolerated safety profile"}, {"measurement": "UPCR", "setting": "patients with IgAN; [2]", "result": "clinically meaningful UPCR reduction"}, {"measurement": "eGFR levels", "setting": "patients with IgAN; [2]", "result": "stable/improving"}, {"measurement": "dose-response effect on UPCR", "setting": "patients with IgAN; at 90 days, primary endpoint", "result": "statistically significant dose-response effect"}, {"measurement": "LDH levels", "setting": "PNH patients; [3]", "result": "reduction in LDH levels"}, {"measurement": "hemoglobin in the absence of RBC transfusions", "setting": "PNH patients; [3]", "result": "improvements in hemoglobin"}, {"measurement": "hemolysis", "setting": "PNH patients; 200 mg b.i.d., preliminary data", "result": "control of both intra- and extravascular hemolysis"}, {"measurement": "safety and tolerability", "setting": "PNH patients; both PNH studies", "result": "overall safe and well tolerated"}, {"measurement": "proportion of individuals with >90% target inhibition", "setting": "alternative pathway", "result": "more than 70%"}, {"measurement": "target inhibition (Wieslab assay)", "setting": "alternative pathway; reached in more than 70% of individuals", "result": "> 90", "unit": "%"}, {"measurement": "deaths, SAEs, AEs leading to study drug discontinuation", "setting": "[1]; [4]", "result": "No deaths, serious adverse events (SAEs), or adverse events (AEs) leading to study drug discontinuation were observed"}, {"measurement": "tolerability", "setting": "[1]; [4]", "result": "well tolerated"}, {"measurement": "solubility", "setting": "[1]; as reported from the healthy volunteer studies", "result": "high"}, {"measurement": "absorption", "setting": "[1]; healthy volunteers, SAD/MAD", "result": "fast"}]}
